We go through 37 compounds from PMC12583827, “Harnessing microbial-derived metabolites in the urinary tract to prevent infection induced catheter encrustation” (Nature Communications, 2025).

The structures appear in SMILES notation. Counter-ions that a name gives are not always drawn. Like-named read-outs stand apart in the source and are kept apart here. Where a SMILES comes first, the peptide text is derived from it. Where only a bound is given, the exact number is not on record here.

Assay [1] concerns the target T1, P. mirabilis urease (Proteus mirabilis, UniProt P17086).
T1 construct: it utilizes whole bacterial cells, rather than isolated enzyme preparations; endogenous in cells; host or cells: Proteus mirabilis HI4320, live whole cells
The format is cell-based. The following applies: for Dampens urease activity: biosynthetic pathway/functional group screen; for effect on P. mirabilis urease activity (whole cell): potassium phosphate buffer, dose response.

For assay [2], the target named is T2, urease of P. mirabilis cell free extracts (Proteus mirabilis, UniProt P17086).
T2 construct: 20ul of cell-free extract were distributed into a 96-well plate in place of the whole cell bacterial suspensions; endogenous in cells; host or cells: Proteus mirabilis HI4320, urea-induced; freeze-thaw and sonication lysate, clarified supernatant
T2 sequence (P17086 whole entry): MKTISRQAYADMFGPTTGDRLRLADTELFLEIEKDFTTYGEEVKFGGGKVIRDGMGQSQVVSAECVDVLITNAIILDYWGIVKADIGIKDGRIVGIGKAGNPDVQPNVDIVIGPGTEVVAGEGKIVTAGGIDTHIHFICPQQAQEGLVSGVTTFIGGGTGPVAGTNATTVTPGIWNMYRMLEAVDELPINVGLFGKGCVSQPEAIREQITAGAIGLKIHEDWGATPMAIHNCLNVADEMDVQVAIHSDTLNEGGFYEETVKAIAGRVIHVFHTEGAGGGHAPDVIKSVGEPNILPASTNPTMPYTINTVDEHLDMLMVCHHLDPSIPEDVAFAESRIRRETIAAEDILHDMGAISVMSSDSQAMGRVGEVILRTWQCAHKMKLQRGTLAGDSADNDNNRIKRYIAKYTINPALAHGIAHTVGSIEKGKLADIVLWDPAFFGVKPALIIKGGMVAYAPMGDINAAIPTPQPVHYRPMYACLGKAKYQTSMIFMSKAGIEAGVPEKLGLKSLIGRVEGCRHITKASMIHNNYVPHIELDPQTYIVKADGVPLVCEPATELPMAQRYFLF
T2 sequence (P17088 whole entry, further chain): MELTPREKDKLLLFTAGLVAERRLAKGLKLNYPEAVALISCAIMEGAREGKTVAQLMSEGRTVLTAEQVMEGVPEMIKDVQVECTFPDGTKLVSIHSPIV
T2 sequence (P17087 whole entry, further chain): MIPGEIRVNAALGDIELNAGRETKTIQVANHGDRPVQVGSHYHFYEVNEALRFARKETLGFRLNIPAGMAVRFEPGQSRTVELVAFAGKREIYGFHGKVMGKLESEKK
The format is biochemical. How it is done: For the kinetic analysis of the urease reaction in the presence of urease dampening metabolites, urease activity assays were repeated with the P. mirabilis cell free extracts. Six different inhibitor concentrations that gave linear rates of reaction over a period of 120 min were tested for their effects on urease activity in the presence of urea concentrations ranging from 0 to 500 mM. Simple linear regression was performed on the absorbance (OD562) over 120 minutes for each condition and plotted as Initial velocity (slope) vs urea concentration. These initial hyperbolic plots were converted to double-reciprocal Lineweaver-Burke plots, and the pattern of inhibition inferred from the point of intersection of the lines. Finally, the Ki for a particular compound was determined by plotting the Km/Vmax ratio (the slope of the Lineweaver-Burke plots) of each line as a function of the inhibitor concentration as described by ref. [49]. The X-intercept corresponded to –Ki.

The target in assay [3] is T1, P. mirabilis urease. The format is cell-based. How it is done: To assess the synergistic effects of dampening metabolites when used in combination with each other, P. mirabilis urease activity was measured as described above. Between 4-6 different concentrations for each dampening metabolite were tested both alone and in combination (See Fig. 6a for example). […] To account for variability between experiments, all conditions tested were performed on a single 96-well plate with three technical replicates for each condition. To compare between biologic replicates, percent inhibition relative to untreated P. mirabilis was calculated for each condition using the average area under the curve over 120-180 minutes (so that the positive control activity curve saturated without any increase in the negative control curve).
Statistical analysis was conducted using a one sample T test of the combination index compared to a hypothetical value of 1 (additive effect). […] Therefore, combination indexes were calculated using a desired effect size less than 40% were indicated with an * in Fig. 6b and in Supplementary Data 5.

Assay [4] addresses T3, Jack Bean Urease (JBU) (Canavalia ensiformis, UniProt P07374).
T3 construct: purchased Sigma-Aldrich
The assay is classed as biochemical. To be noted: 0.1 U JBU, 500 mM urea. How it is done: To measure Jack Bean urease activity, the previously described assay was modified such that 0.1 U (1U liberates 1 µmol of ammonia from urea per minute) of JBU (Sigma-Aldrich urease from Canavalia ensiformis) were distributed into a 96-well plate in place of the bacterial suspensions. Acetohydroxamic acid (AHA), was used as a positive control and a vehicle control was used as a negative control. Percent of maximum urease activity was calculated using Area Under the Curve (AUC) relative to untreated bacteria of interest or untreated JBU. Urease activity measurement in MRSA was adapted from a recently published semi quantitative assay (See Supplementary materials for details)[48].
414 Supplementary Figure 13. Microbial metabolites dampen activity of purified Jack Bean
415 Urease (JBU). 0.1 U of JBU (1U liberates 1 µmol of ammonia from urea per minute) was
416 incubated at 37 °C with shaking in urease-dampening metabolites, 500mM urea, and phenol red.
417 A urea analogue, AHA, served as the positive control for inhibition of JBU. Absorbance
418 (OD562) was measured every 60 seconds for 90 minutes, and activity is expressed as percent of
419 maximum activity (% Max Activity) relative to untreated JBU. Graphs show mean±SD for 3
420 independent experiments with 3 technical replicates each. Data were analyzed by two tailed one
421 sample t-test to a hypothetical value of 100% activity. ***P<0.001, **P<0.002, *P<0.033.
(1 picture or pasted object on this page, not shown here)

In assay [5] the target is T4, urease of P. mirabilis HI4320 cell free extracts (Proteus mirabilis, UniProt P17086).
T4 construct: 20ul of cell-free extract were distributed into a 96-well plate in place of the whole cell bacterial suspensions; endogenous in cells; host or cells: Proteus mirabilis HI4320, urea-induced; freeze-thaw and sonication lysate, clarified supernatant
T4 sequence (P17088 whole entry): as the sequence (P17088 whole entry, further chain) above
T4 sequence (P17086 whole entry): as the sequence (P17086 whole entry) above
T4 sequence (P17087 whole entry, further chain): as the sequence (P17087 whole entry, further chain) above
The format is biochemical. On the procedure: To measure urease activity of the cell free extracts of P. mirabilis, P. mirabilis was cultured for ~18 h in LB broth and then sub cultured until it reached mid-log growth phase (OD600 0.2-0.5). Cultures were spun down to pellet at 10,000 rcf for 10 minutes and resuspended in saline to a final OD600 of 1.0. Cultures were then diluted 1:10 in potassium phosphate buffer pH7 supplemented with 500 mM urea and incubated at 37 °C with shaking for 1 h to induce its urease enzyme production. The isogenic urease mutant Pm ureF::kan (Supplementary Data 1) served as negative control. Cultures then were spun down to pellet at 10,000 rcf for 10 minutes and resuspended in 2 mL saline. Cultures were subjected to four cycles of freezing in liquid nitrogen and thawing in a 37 °C water bath. Cultures were then probe sonicated (on ice) at 25% amplitude for 10 sec. Sonicated cultures were centrifuged at 18,900 Xg for 5 min and supernatants were transferred to a clean tube and stored on ice. To measure urease activity of cell free extracts, the previously described assay was modified such that 20ul of cell-free extract were distributed into a 96-well plate in place of the whole cell bacterial suspensions. Acetohydroxamic acid (AHA), was used as a positive control. Percent of maximum urease activity was calculated using Area Under the Curve (AUC) relative to untreated cell free extracts of P. mirabilis.

[6] abbreviates: screen of candidate metabolites, highest concentration tested 20mM, * Trending but not statistically significant.
The mark [7] stands for this setting: highest concentration tested 20mM.
The mark [8] stands for this setting: highest concentration tested 10mM in 20%DMSO.

T1 sequence (P17086 whole entry): as the sequence (P17086 whole entry) above
T1 sequence (P17088 whole entry, further chain): as the sequence (P17088 whole entry, further chain) above
T1 sequence (P17087 whole entry, further chain): as the sequence (P17087 whole entry, further chain) above
T3 sequence (P07374 whole entry, looked up): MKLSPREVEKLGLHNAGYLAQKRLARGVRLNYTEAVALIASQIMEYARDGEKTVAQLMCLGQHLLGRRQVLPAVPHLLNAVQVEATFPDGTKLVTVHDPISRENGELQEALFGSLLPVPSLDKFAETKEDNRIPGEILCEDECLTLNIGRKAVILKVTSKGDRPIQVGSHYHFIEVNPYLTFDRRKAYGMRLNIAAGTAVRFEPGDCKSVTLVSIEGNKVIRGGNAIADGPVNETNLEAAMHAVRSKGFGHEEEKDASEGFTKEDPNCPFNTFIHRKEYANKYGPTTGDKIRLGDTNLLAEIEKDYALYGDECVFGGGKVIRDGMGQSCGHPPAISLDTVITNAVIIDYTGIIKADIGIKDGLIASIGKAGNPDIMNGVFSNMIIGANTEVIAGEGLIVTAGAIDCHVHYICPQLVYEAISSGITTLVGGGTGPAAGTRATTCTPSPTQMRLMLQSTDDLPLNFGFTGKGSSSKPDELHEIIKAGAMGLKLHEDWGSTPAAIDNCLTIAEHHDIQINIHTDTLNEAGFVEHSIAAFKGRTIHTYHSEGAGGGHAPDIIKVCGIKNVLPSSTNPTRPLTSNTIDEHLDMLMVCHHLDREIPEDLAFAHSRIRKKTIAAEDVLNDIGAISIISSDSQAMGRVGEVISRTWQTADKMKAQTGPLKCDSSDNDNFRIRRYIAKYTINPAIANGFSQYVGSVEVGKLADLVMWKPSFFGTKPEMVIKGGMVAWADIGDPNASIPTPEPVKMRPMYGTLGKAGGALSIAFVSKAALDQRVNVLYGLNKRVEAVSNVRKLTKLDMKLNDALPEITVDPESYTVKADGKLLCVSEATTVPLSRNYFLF

Turning to `O=C([O-])CCC(O)C(=O)[O-].[Na+].[Na+]` (racemic) [2-hydroxyglutarate, DL-α-Hydroxyglutaric acid disodium salt], the Urease dampening activity result in assay [1] (setting [6]) was “No”. Still for that read-out and setting: next, `CCC(C)C(=O)C(=O)[O-].[Na+]` (racemic) [3-methyl-2-oxovalerate, (±)-3-Methyl-2-oxovaleric acid sodium salt]: “No”.

For the compound `NC(COP(=O)(O)O)C(=O)O` (racemic) [Ophospho-D,L-serine], in assay [1] (setting [6]), the Urease dampening activity entry is “No”.

Turning to `O=C(O)C(O)Cc1ccccc1` (racemic) [Phenyllactate, (+/-)-3-Phenyllactic acid], the Dampens urease activity entry in assay [1] (setting [7]) is given as “No”. For `O=Cc1c[nH]c2ccccc12` [3-formylindole, Indole-3-carboxyaldehyde], the Urease dampening activity result in assay [1] (setting [8]) is reported as “No”.

On to `O=C(O)C(=O)c1c[nH]c2ccccc12` [3-indoleglyoxylic acid], for which the Urease dampening activity entry in assay [1] (setting [8]) is reported as “No”. Consider `O=C(O)C(=O)Cc1ccc(O)cc1` [4-hydroxyphenylpyruvate, 4-Hydroxyphenylpyruvic acid], for which the Urease dampening activity result in assay [1] (highest concentration tested 15mM in 10% ethanol) is on record as “No”. Take `CC(C)CC(=O)C(=O)O` [4-methyl-2-oxopentanoate, 4-Methyl-2-oxovaleric acid]: in assay [1] (setting [6]), the Urease dampening activity entry is “No”. As for `CC(=O)O` [Acetic acid, Acetic Acid, Glacial], the Dampens urease activity result in assay [1] (setting [7]) was “No”. Turning to `Cl.Cl.NCCCCCN` [Cadaverine dihydrochloride], the Urease dampening activity entry in assay [1] (setting [6]) is recorded as “No”. On the same count and under the same terms, next, `NC(N)=NCCC[C@@H](N)C(=O)O` [D-Arginine]: “No”. As for `NCC(=O)O` [Glycine], the Dampens urease activity result in assay [1] (setting [7]) is “No”. As for `NCCc1c[nH]cn1` [Histamine free base], the Urease dampening activity result in assay [1] (setting [6]) is “Yes*”. `O=C(O)C(=O)Cc1cnc[nH]1` [Imidazole pyruvate, Imidazole pyruvic acid hydrobromide hydrate]: the Dampens urease activity result in assay [1] (highest concentration tested 5mM) is “No”.

Turning to `N=C(N)NCCC[C@H](N)C(=O)O` [L-Arginine], in assay [1] (setting [6]), the Urease dampening activity result was “No”. `N[C@@H](Cc1c[nH]cn1)C(=O)O` [L-Histidine]: the Dampens urease activity result in assay [1] (setting [7]) is on record as “No”. As for `C[C@H](O)C(=O)O` [L-Lactic acid, L-(+)-Lactic acid], in assay [1] (setting [7]), the Dampens urease activity entry is reported as “No”.

Regarding `CC(=O)NCCCCCN` [N-(5-Aminopentyl)acetamide], the Urease dampening activity result in assay [1] (setting [6]) is “No”. On the same count and under the same terms, next, `CC[C@H](C)[C@H](NC(C)=O)C(=O)O` [N-acetylisoleucine, N-acetyl-L-isoleucine]: “No”; `CC(=O)NCCCCN.Cl` [N-acetylputrescine, N-Acetylputrescine Hydrochloride]: “No”. As for `N[C@@H](COP(=O)(O)O)C(=O)O` [Ophospho-L-serine], the Urease dampening activity entry in assay [1] (setting [6]) is “No”. Still for that read-out and setting: the same measure for `Nc1ncnc2c1ncn2[C@@H]1O[C@@H]2COP(=O)(O)O[C@H]2[C@H]1O` [adenosine 3',5'-cyclic monophosphate (cAMP)]: “No”; for `Nc1ncnc2c1ncn2C1OC(COP(=O)(O)O)C(O)C1O` (centres unmarked) [adenosine 5'-monophosphate (AMP), AMP sodium salt hydrate]: “No”. The same measure, in the same setting: the same measure for `NCCCCCN` [cadaverine, Cadaverine]: “No”.

For the compound `O=C1NC(Cc2ccccc2)C(=O)N2CCCC12` (centres unmarked) [cyclo(phe-pro), Cyclo(Phe-Pro)], in assay [1] (setting [6]), the Urease dampening activity result is “No”.

On to `O=C1N[C@@H](Cc2ccc(O)cc2)C(=O)N2CCC[C@@H]12` [cyclo(pro-tyr), Cyclo(-Pro-Tyr)], for which, in assay [1] (setting [6]), the Urease dampening activity entry is recorded as “No”. On the same count and under the same terms, the same measure for `Nc1ccn([C@@H]2O[C@H](CO)[C@@H](O)[C@H]2O)c(=O)n1` [cytidine, Cytidine]: “No”.

With `O=C([O-])[C@H](O)[C@@H](O)[C@H](O)[C@H](O)CO.[Na+]` [gluconate, Gluconic acid Sodium Salt], in assay [1] (setting [6]), the Urease dampening activity result is “No”.

Turning to `NC(N)=NCCCC[C@H](N)C(=O)O` [homoarginine, H-HoArg-OH], in assay [1] (setting [6]), the Urease dampening activity result is “No”. As for `O=C(O)[C@@H](O)Cc1cnc[nH]1` [imidazole lactate], in assay [1], the “effect on P. mirabilis urease activity (whole cell)” value is recorded as “reproducibly decreased”. `CC(C)C[C@H](N)C(=O)NCC(=O)O` [leucylglycine, L-Leucylglycine hydrate] (H-Leu-Gly-OH): in assay [2], the “change of estimated Km on addition of metabolite” value is recorded as “increase” and the “change of estimated Vmax on addition of metabolite” value is “decrease”. In addition, the “type of urease inhibition” value in assay [2] (Michaelis-Menten parameters, Lineweaver-Burke plot) was “mixed inhibitors”. Moreover, in assay [3], the “concentrations required to achieve a significant combination index” value is on record as more than 50 mM. Also, the JBU activity entry in assay [4] was “inhibited”. Besides, the “urease activity of cell free P. mirabilis extracts” value in assay [5] is listed as “at least partially inhibiting”. Besides, the “effect on P. mirabilis urease activity (whole cell)” value in assay [1] is “reproducibly decreased”. In assay [1] (setting [6]), the Urease dampening activity result is listed as “Yes”. Regarding `NCCc1ccccc1` [phenethylamine, 2-Phenylethylamine], the Urease dampening activity result in assay [1] (setting [6]) is given as “No”. Still for that read-out and setting: next, `N[C@@H](Cc1ccccc1)C(=O)O` [phenylalanine, L-phenylalanine]: “No”. Same read-out and setting: next, `NCCCCN` [putrescine, Putrescine Dihydrochloride]: “No”; `OC[C@H]1O[C@@](CO)(O[C@H]2O[C@H](CO)[C@@H](O)[C@H](O)[C@H]2O)[C@@H](O)[C@@H]1O` [sucrose, Sucrose]: “No”. Turning to `N[C@@H](Cc1ccc(O)cc1)C(=O)O` [tyrosine, L-Tyrosine disodium salt dihydrate], the Urease dampening activity result in assay [1] (highest concentration tested 2.5mM) is “No”. As for `O=c1[nH]c(=O)c2nc[nH]c2[nH]1` [xanthine, Xanthine], in assay [1] (highest concentration tested 400uM), the Urease dampening activity result was “No”.
